This is an account of results in patent US20040013717A1, “PEG-lipid containing formulations” (priority 2001, published 2004).

The data set is described as follows: Stability of cryodesiccated composition. Type of data set: physicochemical. The note with it: room temperature. The text has this:
Once formulated, the micelles of the invention may be freeze-dried or lyophilized for long-term storage if desired. […] If the composition is freeze-dried, it may be packed in vials for subsequent reconstitution with a suitable aqueous solution, such as sterile water or sterile water containing a saccharide and/or other suitable excipients, just prior to use. For example, reconstitution may be by simply adding water for injection just prior to administration.

As to “benzoporphyrin derivative monoacid ring A [verteporfin]”, the “period over which potency was maintained” value is reported as “at least nine months”.
